Series [1] is described as follows: Prodrug chemical stability of dissociated nanoformulations in pH 2.0-10.3 buffers. The format is physicochemical. The note with it: buffers pH 2.0-10.3, 24 h. The protocol:
The mixtures were centrifuged at 16,000 × g for 10 min. The supernatants were aspirated and stored at −80 °C until ultraperformance liquid chromatography tandem mass spectrometry (UPLC-MS/MS) analysis.

Another series relates to HIV-1NL4–3-eGFP. Nature of the series: microbe, parasite or virus in culture. The format is cell-based. The note with it: for % GFP Positive: replicates. From the text: (§1) Supplementary Fi gur e 9. ProTide Biological Characterizations. […]
(§2) (1 picture or pasted object on this page, not shown here)

Another series concerns human MDM. The note with it: for prodrug measurements (uptake) / prodrug measurements (retention): 10 uM; for prodrug measurements (uptake): replicates; for prodrug measurements (retention): MDM. As for the experimental part:
Human MDMs were used for in vitro formulation assessments. MDM formulation uptake and retention studies were performed in flat-bottom, 12-well plates at a density of 1.2 × 10^6 cells/well, with each treatment completed in triplicate. […] At 2, 4, and 8 h after treatment, the cells were collected, processed, and analyzed for drug content by UPLC-UV/vis as previously described[12],[13],[56],[63]. […] Then, a culture medium (without drug) was added, and a half-media volume was replaced every other day. MDMs were collected at days 1, 5, 10, 15, and 30 after treatment, and then analyzed for intracellular drug content by UPC-UV/vis. […] MDMs were then collected immediately after the 8 h treatment and analyzed by an FEI Tecnai G2 Spirit transmission electron microscope as previously described[11],[12],[14].
Intracellular TFV-DP was extracted from human MDM or rat PBMCs as follows. […] At 2, 4, and 8 h after treatment, MDM was washed with PBS to remove the excess free drug. The cells were then collected in 70% MS-grade MeOH. TFV-DP from MDM was extracted as follows. Sep-Pak QMA cartridges (360 mg, 37–55 μm; Waters, Milford, MA) were used to separate TFV-DP from TFV- and mono-phosphate counterparts. The QMA cartridges were conditioned with 10 ml of 500 mM KCl, followed by 10 ml of 5 mM KCl. The sample (200 μL) was loaded onto the cartridges and washed with 12 ml of 75 mM KCl. The triphosphate (TP) fraction was eluted with 3 ml of 500 mM KCl. The pH of the TP fraction was lowered to 4.25 by adding 45 μl ammonium acetate buffer (pH 4, 10 mM) per ml eluate, and dephosphorylated by adding one unit of type XA sweet potato acid phosphatase (Sigma-Aldrich) per ml eluate (3 μL per sample) and incubating at 37 °C for 45 min. […] Samples were then loaded onto Waters OASIS HLB cartridges (60 mg, 30 μm; Waters, Milford, MA) pre-conditioned with 3 ml 100% methanol followed by 3 ml 1% TFA to remove salts. Salts were removed from the dephosphorylated samples with 3.5 ml of 1% TFA in water, then eluted with 1.5 ml 100% methanol and evaporated under vacuum. Once dry, the residue was stored at −80 °C until UPLC–MS/MS analyses. Samples were reconstituted in 100 μL of 10% MeOH, 90% 7.5 mM ammonium bicarbonate pH 7 in LC-MS grade water.
TFV-DP: Parent TFV was generated from TFV-DP during sample preparation and then subjected to UPLC-MS/MS analyses. The UPLC-MS/MS system was comprised of a Waters ACQUITY UPLC system coupled to a Waters Xevo TQ-XS triple quadrupole mass spectrometer (Waters, Milford, MA) with electrospray ionization (ESI) source. A CSH C18 analytical column (2.1 × 100 mm, 1.7 µm) equipped with a guard column (Waters, Milford, MA) at 30 °C was used for analyte separation. Samples were maintained at 4 °C during analysis. […] Mobile phase A consisted of 7.5 mM ammonium bicarbonate in water (MS grade, Fisher) with pH adjusted to 7.0 with glacial acetic acid (ACS grade, Sigma). Mobile phase B was 100% methanol (MS grade, Fisher). The flow rate was 0.22 mL/min. […] B was then held at 90% for 0.4 min before returning to initial conditions. Spectra were analyzed and quantified by MassLynx software version 4.1. Quantitation was based upon drug peak area to internal standard peak area ratios.

The next series has as its system CEM-ss T-cells. The settings on record: replicates. As for the experimental part: as §1
one- way analysis of variance (ANOVA) followed by Tukey’s post hoc test was used to compare the prodrug and TFV-DP levels among three treatment groups (*P ≤ 0.05, **P < 0.01, […]
(0.0001– 1000 nM) and determined by HIV-1 reverse transcriptase (RT) activity after viral challenge with HIV -1ADA at an MOI of 0.1. Data was normalized and expressed as percentage of HIV-1 control ± SEM; N = 4.
as §2

Each structure is given as a SMILES string. Several values for one entry are separate records, joined by “and”; a condition that tells them apart may be missing. Equal values may be shown once. Read-outs that look alike come from different tables or passages of the source. Bounds are passed on as bounds.

The term EC50 denotes the concentration at which the effect is half-maximal. A high value points to lower potency in that assay. Take `CC(C)OC(=O)[C@H](C)N[P@](=O)(CO[C@H](C)Cn1cnc2c(N)ncnc21)Oc1ccccc1` [TAF, tenofovir alafenamide]: in series [1], the “hydrolytic stability across pH” value was “hydrolytically unstable at basic pH”. Also, the EC50 in the series with HIV-1NL4–3-eGFP (Human immunodeficiency virus 1, CEM-SS) stood at 330 pM. Also, the “% GFP Positive” value is 0.094% and 0.243% and 0.132% with HIV-1NL4–3-eGFP (Log Drug Concentration (uM) 0); 0.087% and 0.114% and 0.038% in the series with HIV-1NL4–3-eGFP (Log Drug Concentration (uM) -1); 0.071% and 0.098% (2×) in the series with HIV-1NL4–3-eGFP (Log Drug Concentration (uM) -2); 0.109% and 0.099% and 0.2% with HIV-1NL4–3-eGFP (Log Drug Concentration (uM) -3); 39.441% and 35.802% and 35.047% in the series with HIV-1NL4–3-eGFP (Log Drug Concentration (uM) -4); 32.55% and 34.185% and 34.763% in the series with HIV-1NL4–3-eGFP (Log Drug Concentration (uM) -5). For the same compound, the “% GFP Positive” value with HIV-1NL4–3-eGFP (Log Drug Concentration (uM) -6) was 38.186% and 33.243% and 31.663%; in the series with HIV-1NL4–3-eGFP (Log Drug Concentration (uM) -9) it was 36.164% and 40.34% and 38.638%; with HIV-1NL4–3-eGFP (Log Drug Concentration (uM) -12), 43.7% and 40.475% and 37.429%. Further, the “time by which no drug was detectable in MDM” value in the series on human MDM (10 μM) is reported as not above 24 h. Besides, the “prodrug measurements (uptake)” value is 2.762 and 0.9713 and 2.037 with human MDM (2 hours); 0.3098 in the series on human MDM (4 hours); 0.3813 in the series on human MDM (8 hours). Also, the Intracellular prodrug concentration in the series on human MDM (10 μM, 8 h) was determined as 0.38 μg/10^6 cells. The “prodrug measurements (retention)” value in the series with human MDM (day 1, replicates) was 0; in the series on human MDM (day 5, replicates) it was 0; with human MDM (day 10, replicates), 0; in the series with human MDM (day 15, replicates), 0; in the series with human MDM (day 30, replicates), 0. The “Prodrug measurements, CEM-ss cells” value is 0.09778 and 0.1063 and 0.08772 with CEM-ss T-cells (2 hours); 0.113 and 0.1292 and 0.1331 with CEM-ss T-cells (4 hours); 0.2769 and 0.2544 and 0.2424 with CEM-ss T-cells (8 hours).
